Measured values from publication PMC5826244 (OncoTargets and therapy, 2018).

Key:
[1] = test system: LH-RH-I receptors expressed in rat pituitaries; details: cited from earlier work
[2] = biological target: T1, LH-RH-I receptors, membranes of human UM models (Homo sapiens, UniProt P30968); assay: Radioligand binding / ligand competition, human UM samples; details: increasing concentrations 10^−12–10^−6 M; data not shown
T1 sequence (P30968 1-328): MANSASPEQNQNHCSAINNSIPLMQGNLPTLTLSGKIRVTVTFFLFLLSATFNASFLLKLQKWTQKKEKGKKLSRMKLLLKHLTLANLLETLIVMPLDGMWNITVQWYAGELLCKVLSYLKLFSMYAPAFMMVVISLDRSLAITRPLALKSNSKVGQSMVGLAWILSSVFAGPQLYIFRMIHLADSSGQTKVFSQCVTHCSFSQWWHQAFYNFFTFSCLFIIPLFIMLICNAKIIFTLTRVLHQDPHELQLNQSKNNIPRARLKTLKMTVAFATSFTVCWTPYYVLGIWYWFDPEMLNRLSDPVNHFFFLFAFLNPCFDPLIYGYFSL

Substance	binding affinity to LH-RH-I receptors [1]	displacement of radiolabeled [D-Trp6]LH-RH binding [2]
[^125I][D-Trp[6]]LH-RH	high affinity binding	–
buserelin	–	completely displaced
